Test results from the supplement of paper PMC11208160.

Experiment: recombinant UMI read abundance after kanamycin selection (control-corrected) (log10(CPM+1)); higher = more efficient recombination; extreme values may be limits of the assay; sequences stand for … in AGTGCAGAGAAAATCGGCCAGTTTTCTCTGCCTGCAGTCCGCATGCCGTGGGACCCCTTGGGTTCTAACCTGTTGCCTAGATTTATGCAGCGGACTGCCTTTCTCCCAAAGTGATAAACCGG…AGGTTGGTTTCACT; site = the 11-nt donor
In short: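 In Escherichia coli, a pool of donor and donor-binding-loop pairs, each with a 12-nt UMI, was tested for the IS621 bridge recombinase. Plating was on IPTG (0.07 mM) plus kanamycin, or without selection, in two replicates. Recombinant UMIs were amplified by PCR across the donor–target junction and sequenced, and counts were reported as log10(CPM+1) after averaging and control-derived scaling.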
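Further: IS621 bridge recombinase in Escherichia coli cells against a fixed T5 target plasmid.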

| Sequence | recombinant UMI read abundance (log10) |
| --- | --- |
| ATGCATGCATGGACCGGTTTTCCCGGTAATCCGTATTTGGT (site CTGCATGCTAC) | 0.628 |
| ATGCATGCATGGACCGGTTTTCCCGGTAATCCGTATTTGGT (site GTGCATGCTAC) | 0.323 |
| ATGCATGCATGGACCGGTTTTCCCGGTAATCCGTATTTGGT (site TTGCATGCTAC) | 0.601 |
| ATGCTCGCATGGACCGGTTTTCCCGGTAATCCGTATTTGAA (site ATGCTCGCTTT) | 1.82 |
| ATGGCACCATGGACCGGTTTTCCCGGTAATCCGTATTTGGG (site ATGGCACCTCC) | 0.00577 |
| ATGGGAGCATGGACCGGTTTTCCCGGTAATCCGTATTTGTA (site ATGGGAGCTTA) | 2.2 |
| ATGGGCCCATGGACCGGTTTTCCCGGTAATCCGTATTTGAC (site ATGGGCCCTGT) | 0.523 |
| ATGGGTACATGGACCGGTTTTCCCGGTAATCCGTATTTGGC (site ATGGGTACTGC) | 2.89 |
| ATGGTAGCATGGACCGGTTTTCCCGGTAATCCGTATTTGGA (site ATGGTAGCTTC) | 1.72 |
| ATGGTATCATGGACCGGTTTTCCCGGTAATCCGTATTTGAC (site ATGGTATCTGT) | 3.67 |
| ATGGTATCATGGACCGGTTTTCCCGGTAATCCGTATTTGAC (site CTAGTATCTGT) | 2.1 |
| ATGGTATCATGGACCGGTTTTCCCGGTAATCCGTATTTGCA (site ACAGTATCTTG) | 1.69 |
| ATGGTATCATGGACCGGTTTTCCCGGTAATCCGTATTTGCA (site ATGGTATCTTG) | 3.07 |
| ATGGTTTCATGGACCGGTTTTCCCGGTAATCCGTATTTGTA (site ATGGTTTCTTA) | 2.68 |
| ATGTACGCATGGACCGGTTTTCCCGGTAATCCGTATTTGGC (site ATGTAAGCTGC) | 1.81 |
| ATGTACGCATGGACCGGTTTTCCCGGTAATCCGTATTTGGC (site ATGTACGCTGC) | 3.06 |
| ATGTACGCATGGACCGGTTTTCCCGGTAATCCGTATTTGGC (site ATGTAGGCTGC) | 0 |
| ATGTACGCATGGACCGGTTTTCCCGGTAATCCGTATTTGGC (site ATGTATGCTGC) | 0 |
| ATGTACTCATGGACCGGTTTTCCCGGTAATCCGTATTTGCA (site ATGTACTCTTG) | 2.96 |
| ATGTAGCCATGGACCGGTTTTCCCGGTAATCCGTATTTGGC (site ATGTAGACTGC) | 0 |
| ATGTAGCCATGGACCGGTTTTCCCGGTAATCCGTATTTGGC (site ATGTAGCCTGC) | 0.669 |
| ATGTAGCCATGGACCGGTTTTCCCGGTAATCCGTATTTGGC (site ATGTAGGCTGC) | 0 |
| ATGTAGCCATGGACCGGTTTTCCCGGTAATCCGTATTTGGC (site ATGTAGTCTGC) | 1.33 |
| ATGTAGGCATGGACCGGTTTTCCCGGTAATCCGTATTTGGC (site AAGTAGGCTGC) | 1.22 |
| ATGTAGGCATGGACCGGTTTTCCCGGTAATCCGTATTTGGC (site ACGTAGGCTGC) | 1.74 |

| Sequence | recombinant UMI read abundance (log10) |
| --- | --- |
| ATGTAGGCATGGACCGGTTTTCCCGGTAATCCGTATTTGGC (site AGGTAGGCTGC) | 0.332 |
| ATGTAGGCATGGACCGGTTTTCCCGGTAATCCGTATTTGGC (site ATATAGGCTGC) | 2.8 |
| ATGTAGGCATGGACCGGTTTTCCCGGTAATCCGTATTTGGC (site ATCTAGGCTGC) | 0.844 |
| ATGTAGGCATGGACCGGTTTTCCCGGTAATCCGTATTTGGC (site ATGAAGGCTGC) | 2.35 |
| ATGTAGGCATGGACCGGTTTTCCCGGTAATCCGTATTTGGC (site ATGCAGGCTGC) | 2.19 |
| ATGTAGGCATGGACCGGTTTTCCCGGTAATCCGTATTTGGC (site ATGGAGGCTGC) | 0 |
| ATGTAGGCATGGACCGGTTTTCCCGGTAATCCGTATTTGGC (site ATGTAAGCTGC) | 2.28 |
| ATGTAGGCATGGACCGGTTTTCCCGGTAATCCGTATTTGGC (site ATGTACGCTGC) | 0.834 |
| ATGTAGGCATGGACCGGTTTTCCCGGTAATCCGTATTTGGC (site ATGTAGACTGC) | 2.34 |
| ATGTAGGCATGGACCGGTTTTCCCGGTAATCCGTATTTGGC (site ATGTAGCCTGC) | 0.604 |
| ATGTAGGCATGGACCGGTTTTCCCGGTAATCCGTATTTGGC (site ATGTAGGCTAC) | 1.17 |
| ATGTAGGCATGGACCGGTTTTCCCGGTAATCCGTATTTGGC (site ATGTAGGCTCC) | 0.328 |
| ATGTAGGCATGGACCGGTTTTCCCGGTAATCCGTATTTGGC (site ATGTAGGCTGA) | 2.15 |
| ATGTAGGCATGGACCGGTTTTCCCGGTAATCCGTATTTGGC (site ATGTAGGCTGC) | 2.4 |
| ATGTAGGCATGGACCGGTTTTCCCGGTAATCCGTATTTGGC (site ATGTAGGCTGG) | 2.41 |
| ATGTAGGCATGGACCGGTTTTCCCGGTAATCCGTATTTGGC (site ATGTAGGCTGT) | 2.51 |
| ATGTAGGCATGGACCGGTTTTCCCGGTAATCCGTATTTGGC (site ATGTAGGCTTC) | 1.15 |
| ATGTAGGCATGGACCGGTTTTCCCGGTAATCCGTATTTGGC (site ATGTAGTCTGC) | 1.06 |
| ATGTAGGCATGGACCGGTTTTCCCGGTAATCCGTATTTGGC (site ATGTATGCTGC) | 0.657 |
| ATGTAGGCATGGACCGGTTTTCCCGGTAATCCGTATTTGGC (site ATGTCGGCTGC) | 0.474 |
| ATGTAGGCATGGACCGGTTTTCCCGGTAATCCGTATTTGGC (site ATGTGGGCTGC) | 0.618 |
| ATGTAGGCATGGACCGGTTTTCCCGGTAATCCGTATTTGGC (site ATGTTGGCTGC) | 0.568 |
| ATGTAGGCATGGACCGGTTTTCCCGGTAATCCGTATTTGGC (site ATTTAGGCTGC) | 0.516 |
| ATGTAGGCATGGACCGGTTTTCCCGGTAATCCGTATTTGGC (site CTGTAGGCTGC) | 0.572 |
| ATGTAGGCATGGACCGGTTTTCCCGGTAATCCGTATTTGGC (site GTGTAGGCTGC) | 0.716 |

| Sequence | recombinant UMI read abundance (log10) |
| --- | --- |
| ATGTAGGCATGGACCGGTTTTCCCGGTAATCCGTATTTGGC (site TTGTAGGCTGC) | 1.95 |
| ATGTAGGCATGGACCGGTTTTCCCGGTAATCCGTATTTGGG (site ATGTAGGCTAC) | 0.251 |
| ATGTAGGCATGGACCGGTTTTCCCGGTAATCCGTATTTGGG (site ATGTAGGCTCC) | 0.167 |
| ATGTAGGCATGGACCGGTTTTCCCGGTAATCCGTATTTGGG (site ATGTAGGCTGC) | 0 |
| ATGTAGGCATGGACCGGTTTTCCCGGTAATCCGTATTTGGG (site ATGTAGGCTTC) | 0.0205 |
| ATGTAGGCATGGACCGGTTTTCCCGGTAATCCGTATTTGTC (site ATGTAGGCTGA) | 2.72 |
| ATGTAGGCATGGACCGGTTTTCCCGGTAATCCGTATTTGTC (site ATGTAGGCTGC) | 1.62 |
| ATGTAGGCATGGACCGGTTTTCCCGGTAATCCGTATTTGTC (site ATGTAGGCTGG) | 2.52 |
| ATGTAGGCATGGACCGGTTTTCCCGGTAATCCGTATTTGTC (site ATGTAGGCTGT) | 1.91 |
| ATGTATACATGGACCGGTTTTCCCGGTAATCCGTATTTGCA (site ATGTATACTTG) | 2.39 |
| ATGTCGACATGGACCGGTTTTCCCGGTAATCCGTATTTGCG (site ATGTCGACTCG) | 0.954 |
| ATGTCGGCATGGACCGGTTTTCCCGGTAATCCGTATTTGGC (site ATGTAGGCTGC) | 0.445 |
| ATGTCGGCATGGACCGGTTTTCCCGGTAATCCGTATTTGGC (site ATGTCGGCTGC) | 2.2 |
| ATGTCGGCATGGACCGGTTTTCCCGGTAATCCGTATTTGGC (site ATGTGGGCTGC) | 0 |
| ATGTCGGCATGGACCGGTTTTCCCGGTAATCCGTATTTGGC (site ATGTTGGCTGC) | 0.0547 |
| ATGTTCACATGGACCGGTTTTCCCGGTAATCCGTATTTGGT (site ATGTTCACTAC) | 1.66 |
| ATGTTTGCATGGACCGGTTTTCCCGGTAATCCGTATTTGCG (site ATGTTTGCTCG) | 1.95 |
| ATGTTTGCATGGACCGGTTTTCCCGGTAATCCGTATTTGCT (site ATGTTTGCTAG) | 1.94 |
| ATTCCCTCATGGACCGGTTTTCCCGGTAATCCGTATTTGAC (site ATTCCCTCTGT) | 3.23 |
| ATTCCTACATGGACCGGTTTTCCCGGTAATCCGTATTTGAC (site ATTCCTACTGT) | 0.882 |
| ATTCGAGCATGGACCGGTTTTCCCGGTAATCCGTATTTGCA (site ATTCGAGCTTG) | 1.49 |
| ATTCGAGCATGGACCGGTTTTCCCGGTAATCCGTATTTGCA (site CTTCGAGCTTG) | 1.44 |
| ATTCGAGCATGGACCGGTTTTCCCGGTAATCCGTATTTGCA (site GTTCGAGCTTG) | 0.663 |
| ATTCGAGCATGGACCGGTTTTCCCGGTAATCCGTATTTGCA (site TTTCGAGCTTG) | 0.947 |
| ATTCGCCCATGGACCGGTTTTCCCGGTAATCCGTATTTGAA (site ATTCGCCCTTT) | 0.156 |
